Experimental data taken from paper PMC8316502 (Nature Communications, 2021).
Like-named read-outs stand apart in the source and are kept apart here.

What was measured:
S. stellulata AepX = assay: Microscale thermophoresis ligand binding of recombinant S. stellulata AepX; design: species or system Stappia stellulata; conditions: for Kd: read-out: Kd (μM) AepX Ss
Description: Finally, we determined the substrate specificity of recombinant S. stellulata AepX towards 2AEP and other (alkyl)phosphonates using microscale thermophoresis[53],[54].
Recombinant AepX was over-produced and purified to homogeneity using methods described in[53]. Binding affinity was determined by microscale thermophoresis using a Monolith NT.115 instrument (NanoTemper Technologies GmbT, Germany) following the protocols described in[53],[54]. A detailed protocol is outlined in the Supplementary Materials. […]
pET21a::aepXSs was sequence verified by automated DNA sequencing (Eurofins, Germany) and introduced to E. coli BL21(DE3) for over-production of recombinant AepX with a C-terminal […]
E. coli BL21(DE3) harbouring pET21a::aepXSs was grown in LB broth with 100 µg mL-1 ampicillin in a culture volume of 1 L contained within a 2 L baffled flask. […]
The binding affinity of AepX for phosphonate ligands was determined using Microscale Thermophoresis (MST) with a Monolith NT.115 instrument (NanoTemper Technologies, Germany).
AepX (100 nM) was labelled with 2nd Generation RED-tris-NTA dye (Nanotemper Technologies, Germany) in 20 mM HEPES pH 7.5 with 200 mM NaCl and 0.005% (v/v) Tween-20 (MST buffer) according to the manufacturer’s instructions. […] 4 µL of each protein-ligand mixture was loaded into Monolith NT.115 Premium Capillaries (Nanotemper Technologies, Germany) and thermophoresis was measured at 22 °C for 22 s with 60 % LED power and High MST power. Data from at least two independent titrations were combined and analysed using the MO.Affinity Analysis software version 2.3 (Nanotemper Technologies, Germany), using the early thermophoresis data at 1 – 2.5 seconds in the experiment for analysis. […]
Figure S7. Binding affinities for selected phosphonates by the Stappia stellulata AepX substrate binding protein determined by microscale thermophoresis. […]

E. coli PhnD = conditions: read-out: Kd (μM) PhnD Ec, cited from earlier work
[1] = test system: Alliiroseovarius sediminilitoris (DSM 29439); assay: Final growth yield on sole N or P source, DSM 29439; format: cell-based
Description: (§1) All strains used in this work were axenic. Pseudomonas strains were maintained on Luria Bertani (LB) agar (1.5% w/v) medium at 30 °C. Stappia stellulata and the Roseobacter strains were maintained on Marine Broth agar (1.5% w/v) medium at 30 °C. […] For all growth and proteomics experiments cultures were grown in an adapted minimal A medium[44] using Na-Succinate (20 mM) as the sole carbon source and, where applicable, 10 mM NH4Cl was added as the sole N source. 2AEP and KH2PO4 were added to a final concentration of 100 µM or 1.5 mM as specified in the text and figure legends. Pseudomonas strains were pre-cultured in minimal medium A containing 100 µM Pi and 1.5 mM NH4Cl to ensure adequate growth while minimising the potential for carryover of residual nutrients into experimental cultures. Culture experiments were performed using a FLUOStar Omega 96-well plate reader using Sarstedt 96-well plates incubated at 30°C, shaking at 200 rpm. […] For all other growth and proteomics experiments these marine bacteria were grown in Sea Salts media, with Pi buffer replaced by HEPES buffer. The method used for quantifying extracellular Pi is detailed in the Supplementary Materials.
(§2) Table S1 Final growth yields (mean OD540 ± standard deviation) of Stappia stellulata (DSM 5886), Alliiroseovarius crassostreae (DSM 16950), Alliiroseovarius sediminilitoris (DSM 29439), Thalassobius aestuarii (DSM 15283), and Shimia marina (DSM26895) on 2AEP as sole N or P source with corresponding negative and positive controls. All conditions were performed in triplicate.

[2] = test system: Alliiroseovarius crassostreae (DSM 16950); assay: Final growth yield on sole N or P source, DSM 16950; format: cell-based
Description: as §1, §2

[3] = test system: Stappia stellulata (DSM 5886); assay: Final growth yield on sole N or P source, DSM 5886; format: cell-based
Description: as §1, §2

Shimia marina (DSM26895) = assay: Final growth yield on sole N or P source, DSM 26895; format: cell-based
Description: as §1, §2

[4] = test system: Pseudomonas putida BIRD-1; assay: Growth of P. putida BIRD-1 on 2AEP; format: cell-based
Description: All strains used in this work were axenic. Pseudomonas strains were maintained on Luria Bertani (LB) agar (1.5% w/v) medium at 30 °C. […] For all growth and proteomics experiments cultures were grown in an adapted minimal A medium[44] using Na-Succinate (20 mM) as the sole carbon source and, where applicable, 10 mM NH4Cl was added as the sole N source. 2AEP and KH2PO4 were added to a final concentration of 100 µM or 1.5 mM as specified in the text and figure legends. Pseudomonas strains were pre-cultured in minimal medium A containing 100 µM Pi and 1.5 mM NH4Cl to ensure adequate growth while minimising the potential for carryover of residual nutrients into experimental cultures. Culture experiments were performed using a FLUOStar Omega 96-well plate reader using Sarstedt 96-well plates incubated at 30°C, shaking at 200 rpm.

[5] = test system: Thalassobius aestuarii (DSM 15283); assay: Final growth yield on sole N or P source, DSM 15283; format: cell-based
Description: as §1, §2

| Compound | Kd (S. stellulata AepX; microscale thermophoresis, recombinant S. stellulata AepX, 22 °C) [µM] | Kd (E. coli PhnD; E. coli PhnD, previous studies) [µM] | Final growth yield (mean OD540 ± standard deviation), sole N source [1] [OD540] | Final growth yield (mean OD540 ± standard deviation), sole N source [2] [OD540] | Final growth yield (mean OD540 ± standard deviation), sole N source [3] [OD540] | Final growth yield (mean OD540 ± standard deviation), sole N source (Shimia marina (DSM26895)) [OD540] | Kd of AepX in words (S. stellulata AepX) | Kd (S. stellulata AepX) [µM] | Growth on 2AEP as sole P, sole N or sole N and sole P source [4] | Final growth yield (mean OD540 ± standard deviation), sole P source [1] [OD540] | Kd (E. coli PhnD) [µM] | Final growth yield (mean OD540 ± standard deviation), sole P source [2] [OD540] | Final growth yield (mean OD540 ± standard deviation), sole P source [3] [OD540] | Final growth yield (mean OD540 ± standard deviation), sole P source (Shimia marina (DSM26895)) [OD540] | Final growth yield (mean OD540 ± standard deviation), sole N source [5] [OD540] | Final growth yield (mean OD540 ± standard deviation), sole P source [5] [OD540] |
| --- | --- | --- | --- | --- | --- | --- | --- | --- | --- | --- | --- | --- | --- | --- | --- | --- |
| NCP(=O)(O)O [Aminomethylphosphonate] | 4490 ± 808 | 16.6 |  |  |  |  |  |  |  |  |  |  |  |  |  |  |
| ammonium [NH4] |  |  | 0.257±0.004 | 0.776±0.044 | 0.680±0.016 | 0.397±0.035 |  |  |  |  |  |  |  |  |  |  |
| NCCP(=O)(O)O [2-Aminoethylphosphonate, 2-aminoethylphosphonate] |  |  | 0.239±0.008 | 0.535±0.039 | 0.816±0.080 | 0.347±0.004 | nanomolar range | 0.023 ± 0.004 | capable of growth | 0.748±0.019 | 0.05 to 0.1 | 1.050±0.018 | 0.980±0.005 | 0.827±0.013 | 0.487±0.020 | 0.869±0.094 |
| orthophosphate [Pi] |  |  |  |  |  |  |  |  |  | 1.100±0.037 |  | 0.90±0.018 | 1.01±0.07 | 1.045±0.020 |  | 1.003±0.030 |
